Where a SMILES comes first, the peptide text is derived from it. Where no end group is shown, it is not given here. [ ]: non-standard residue; d: D form. Oic = O=C(O)[C@@H]1C[C@@H]2CCCC[C@@H]2N1
Tests used:
Bombyx mori larval gut = conditions: cited from earlier work
honey bee queen = conditions: injection, 1 µL containing 1 µg; cited from earlier work
CHO cells, empty vector = test: Negative control, CHO cells transfected with the empty vector; format: cell-based, Chinese hamster; conditions: 10 µM
Protocol: The receptor was also tested with a variety of peptide analogs and peptidomimetics.
(§1) Approximately thirty hours after transfection, the cells were collected and preincubated with coelenterazine h for the functional assay, as previously described[30],[31],[52]. The ligands in serial dilutions were loaded into 96-well opaque plates. Cells treated with coelenterazine h were injected into each well on an Orion microplate luminometer (Berthold) luminescent plate reader. The luminescence was measured for 20 s immediately after the cell injections. Data analyses were performed to determine the accumulated luminescence value for 20 s after extraction of blank-well luminescence. A dose–response curve was generated and the EC50 (50% effective concentration) was calculated in Origin 7 (OriginLab) as described in Jiang et al.[31],[53]. The three biological replications were regressed for the dose–response curves with 95% confidence intervals (Table 1). For the tests of the second set of ligands, we used the cell line that stably expressed VdProctR, which were selected by Zeocin for 5 passages.

[1] = tested on: honey bee FMRFamide receptor; test: Activity on honey bee FMRFamide receptor expressed in CHO cells; format: cell-based, Apis mellifera
Protocol: as §1, with “Honey bee FMRFamide receptor was cloned and expressed in the same system as described for the proctolin receptor. […] Approximately” for “Approximately”, “A dose–response curve was generated and the EC50 (50% effective concentration) was calculated in Origin 7 (OriginLab) as described in Jiang et al.[31],[53].” left out, “dose-response” for “dose–response”

Varroa mites = test: Varroa mite feeding assay (drop on gnathosoma), paralysis/death; format: in vivo, Varroa destructor; conditions: 48 h; 200 nL on gnathosoma; 0.1 nM (methods) / 0.01 nM (Fig. 4 legend)
Protocol: In the continued bioassay, the toxicities were assessed by counting paralysis/death in feeding assay. A drop of 200 nL solution was placed on the gnathosoma of an immobilized mite for forced feedings of active components. Low levels of acute toxicities of peptidomimetics were indicated by lower than 50% effects within 6 h after the treatments. The toxic effects were increased over time and reached 100% of the effects in the 48 h treatments of 2336 (Fig. 4, ANOVA p < 0.05). In H2O control, about 10% or less of the number of individuals were paralyzed/dead. Accurate cause of the paralysis/death remains yet to be studied.
Adult female Varroa mites were collected using a sugar roll method from honey bee hives located at the East Campus apiary of the University of Nebraska (Lincoln, NE USA) in September–October 2019. The hives were not treated with chemicals for honey bee parasites or pathogens. The mites were sorted in the laboratory with a paint brush and tested within 4 h post collection. […] The number of affected (i.e., dead and/paralyzed) was observed and recorded at 1, 2, 6, 12, 24, and 48 h. The percent effect for each treatment was analyzed using a one-way analysis of variance (ANOVA) with a Tukey’s post-hoc test (GraphPad Prism, La Jolla, CA; p < 0.05).

[2] = molecular target: Varroa mite proctolin receptor (VdProctR) (Varroa destructor, UniProt A0A7T1TE40); test: Receptor activity assay (aequorin luminescence), CHO cells transiently expressing the receptor, first set of ligands; format: cell-based; conditions: activities at 1 μM and 10 μM
Protocol: as §1, with “A dose–response curve was generated and the EC50 (50% effective concentration) was calculated in Origin 7 (OriginLab) as described in Jiang et al.[31],[53].” left out

Sequence of Varroa mite proctolin receptor (VdProctR) (A0A7T1TE40 entry or part of it): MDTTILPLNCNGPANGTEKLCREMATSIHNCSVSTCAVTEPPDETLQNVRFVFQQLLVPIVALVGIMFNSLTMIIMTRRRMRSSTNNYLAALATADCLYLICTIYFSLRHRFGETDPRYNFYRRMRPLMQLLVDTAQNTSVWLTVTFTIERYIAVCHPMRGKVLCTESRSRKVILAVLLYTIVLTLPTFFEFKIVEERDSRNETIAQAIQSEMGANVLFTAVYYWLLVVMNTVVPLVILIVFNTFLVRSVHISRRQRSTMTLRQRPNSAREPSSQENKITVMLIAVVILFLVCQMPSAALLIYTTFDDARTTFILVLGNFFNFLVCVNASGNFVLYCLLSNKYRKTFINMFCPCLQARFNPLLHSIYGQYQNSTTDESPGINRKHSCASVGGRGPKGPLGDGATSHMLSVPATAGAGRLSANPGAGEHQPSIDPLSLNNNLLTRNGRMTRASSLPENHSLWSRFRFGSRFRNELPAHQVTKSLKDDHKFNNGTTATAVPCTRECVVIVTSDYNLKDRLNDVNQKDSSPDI

**Q.** With RYLPT [Proctolin, RYLPT] as the molecule, how does the “concentration required for hindgut contraction” value (Bombyx mori larval gut; Bombyx mori larval hindgut) read?
**A.** 180 µM

**Q.** And the “concentration required in the midgut to slightly reduce leucine uptake” value (Bombyx mori larval gut; Bombyx mori larval midgut)?
**A.** 10 µM

**Q.** What about the “effect on egg-laying activity of the queen” value (honey bee queen) of the same molecule?
**A.** increased the egg-laying activity

**Q.** And the “activity on empty-vector transfected cells” value (CHO cells, empty vector)?
**A.** did not show any activity

**Q.** What about the “activity on honey bee FMRFamide receptor” value [1] of the same molecule?
**A.** no activities

**Q.** Which results are given for CC(C)C[C@H](NC(=O)[C@H](Cc1ccc(O)cc1)NC(=O)[C@@H](N)CCCNC(=N)N)C(=O)N1[C@H](C(=O)N[C@H](C(=O)O)[C@@H](C)O)C[C@@H]2CCCC[C@@H]21 [Analog 2336, RYL[Oic]T] (H-RYL[Oic]T-OH; N-terminus and C-terminus assumed)?
**A.** effects (paralyzed or dead mites) (Varroa mites): 100%; efficacy (maximal response) compared with proctolin [2]: higher than that of proctolin

— article PMC9568543, “Bee-safe peptidomimetic acaricides achieved by comparative genomics” (Scientific Reports, 2022)
